The values that follow come from patent US20170071852A1, “THERAPEUTIC OR PREVENTIVE AGENT FOR MEIBOMIAN GLAND DYSFUNCTION OR MEIBOMIAN GLAND BLOCKAGE” (Santen Pharmaceutical Co., Ltd., priority 2012, published 2017).

“Also recorded” adds a separate entry of the source.

Assay [1] relates to Male Hos:HR-1 hairless mice. The experiment in a line: Test for obstruction of meibomian gland orifices by feeding HR-AD diet using hairless mice. The class given is in vivo, mouse. The following applies: for Number of obstructed meibomian gland orifices (mean, out of eight): six eyes. The method, then:
2. Test for Obstruction of Meibomian Gland Orifices by Feeding HR-AD Diet Using Hairless Mice A 1% (w/v) clarithromycin test solution was prepared by the same operation as described in Pharmacological Test 1. Male Hos:HR-1 hairless mice at five weeks of age were divided into a group of 6 fed a regular diet (CRF-1 diet, manufactured by Oriental Yeast Co., Ltd.); and a group of 12 fed an HR-AD diet (manufactured by Nosan Corporation), and the mice in each respective group were freely allowed to feed the regular diet or HR-AD diet. On the 28th day after the start of the diets, meibomian gland orifices were observed using a slit-lamp and the number of obstructed orifices out of eight meibomian gland orifices of the center of the right upper eyelid were counted. The presence or absence of an obstruction of the meibomian gland orifice was determined based on whether the meibomian gland orifice was in a cloudy and swollen state. The 12 mice in the HR-AD diet group were further divided into a saline-administered group; and a 1% (w/v) clarithromycin aqueous solution-administered group, and testing was carried out with six eyes in each group so as to minimize variations in the mean scores of the number of obstructed meibomian gland orifices in each group; from the 29th day after starting the diets, saline (2 μl/eye, three times per day) or 1% (w/v) clarithromycin aqueous solution (2 μl/eye, three times per day) were instilled for 14 days. At 42 days after starting the diet, meibomian gland orifices were observed using a slit-lamp and the number of obstructed orifices out of eight meibomian gland orifices of the center of the right upper eyelid were counted.

For the next assay, the system named is female Lewis rats. The assay can be described thus: Test for meibomian gland peripheral telangiectasia by administration of complete Freund's adjuvant using rats. The class given is in vivo, rat. The note with it: for Telangiectasia score (mean): six eyes. The method, then: 1. Test for Meibomian Gland Peripheral Telangiectasia by Administration of Full Friend's Adjuvant Using Rats Clarithromycin (LKT Laboratories, Inc.), concentrated glycerin, dibasic sodium phosphate hydrate and polyoxyl 40 stearate were added to purified water and dissolved to prepare a test sample comprising clarithromycin at a final concentration of 1% (w/v), at pH 7. Twenty five μl of complete Freund's adjuvant was administered to one site of the right upper eyelid of female Lewis rats at five weeks age. On the seventh day from the initiation, the periphery of the meibomian gland orifices on the right upper eyelid was observed using a slit-lamp and a telangiectasia score was determined. The eyelid margin of the upper eyelid was divided into three segments: ear, middle and nasal sites, and based on criteria described in Table 1, scores of telangiectasia peripheral to the meibomian gland orifices in each segment were determined and the sum of the scores in three segments were calculated as the telangiectasia score of one eye. The presence or absence of dilation of the capillaries was determined based on whether a capillary that is usually not visible could be ascertained as a result of enlargement of the capillary diameter. [table] After dividing into a saline-administered group and a 1% (w/v) clarithromycin aqueous solution-administered groups, the test was carried out with six eyes in each group so as to minimize variations in mean scores, and from the 8th day after initiation, saline (5 μl/eye, six times per day) or 1% (w/v) clarithromycin aqueous solution (5 μl/eye, three or six times per day) were instilled into the right eyes for 21 days. At 28 days after initiation, the peripheries of the meibomian gland orifices on the right upper eyelids were observed using a slit-lamp and the telangiectasia score was determined.

The mark [2] stands for this setting: 42 days after starting HR-AD diet (14 days from starting administration), 1% (w/v) aqueous solution.

For `CC[C@H]1OC(=O)[C@H](C)[C@@H](O[C@H]2C[C@@](C)(OC)[C@@H](O)[C@H](C)O2)[C@H](C)[C@@H](O[C@@H]2O[C@H](C)C[C@H](N(C)C)[C@H]2O)[C@](C)(OC)C[C@@H](C)C(=O)[C@H](C)[C@@H](O)[C@]1(C)O` [clarithromycin, Clarithromycin], the “Number of obstructed meibomian gland orifices (mean, out of eight)” value in assay [1] (28 days after starting feeding HR-AD diet (day 0 from start of administration, baseline), 1% (w/v) aqueous solution group) stood at 5.5; in assay [1] (42 days after starting feeding HR-AD diet (day 14 from start of administration), 1% (w/v) aqueous solution, 2 μl/eye, three times per day), 1.8. Further, the Meibomian gland concretion entry in assay [1] (setting [2]) was “improved”. In assay [1] (setting [2]), the “Number of obstructed meibomian gland orifices, change in words” value is on record as “notably reduced the number of obstructions; also recorded: remarkably decreased”. Moreover, the “Telangiectasia score (mean)” value in the assay on female Lewis rats (7 days after initiation (day 0 from start of administration, baseline), 1% (w/v) aqueous solution group, instilled 3 times per day) was 5.3; in the assay on female Lewis rats (7 days after initiation (day 0 from start of administration, baseline), 1% (w/v) aqueous solution group, instilled 6 times per day), 5.3; in the assay with female Lewis rats (28 days after initiation (day 21 from start of administration), 1% (w/v) aqueous solution, 5 μl/eye, instilled 3 times per day) it was 2.8; in the assay on female Lewis rats (28 days after initiation (day 21 from start of administration), 1% (w/v) aqueous solution, 5 μl/eye, instilled 6 times per day), 2.5. The “Telangiectasia score in the vicinity of the meibomian gland orifices compared to the saline-administered group” value with female Lewis rats (28 days after initiation (day 21 from start of administration), 1% aqueous solution instilled three or six times per day) is “notably improved the telangiectasia score; also recorded: remarkably lower”.
